From PubChem BioAssay (NCI)
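In this assay, cells in 96-well plates receive the compound at five concentrations for 48 hours. Endpoints are linearly interpolated between the surrounding concentrations. GI50: concentration for 50% inhibition of growth. At the TGI there is no net growth.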

Tests used:
Assay in all cases: DTP human tumour cell line panel, 48 h
EKVX NSCLC = system: EKVX NSCLC
OVCAR-3 ovarian = system: OVCAR-3 ovarian
SF-268 CNS = system: SF-268 CNS
HT29 colon = system: HT29 colon
SK-MEL-5 melanoma = system: SK-MEL-5 melanoma
RPMI-8226 leukemia = system: RPMI-8226 leukemia
NCI-H522 lung = system: NCI-H522 lung
OVCAR-5 ovarian = system: OVCAR-5 ovarian
SK-MEL-28 melanoma = system: SK-MEL-28 melanoma
SN12C renal = system: SN12C renal
K-562 leukemia = system: K-562 leukemia

| Structure (SMILES) | TGI (EKVX NSCLC) [µM] | TGI (OVCAR-3 ovarian) [µM] | TGI (SF-268 CNS) [µM] | TGI (HT29 colon) [µM] | TGI (SK-MEL-5 melanoma) [µM] | TGI (RPMI-8226 leukemia) [µM] | TGI (NCI-H522 lung) [µM] | TGI (OVCAR-5 ovarian) [µM] | TGI (SK-MEL-28 melanoma) [µM] | TGI (SN12C renal) [µM] | TGI (K-562 leukemia) [µM] | GI50 (EKVX NSCLC) [µM] | GI50 (OVCAR-3 ovarian) [µM] | GI50 (HT29 colon) [µM] | GI50 (SK-MEL-5 melanoma) [µM] | GI50 (K-562 leukemia) [µM] | GI50 (OVCAR-5 ovarian) [µM] | GI50 (SK-MEL-28 melanoma) [µM] | GI50 (SN12C renal) [µM] | GI50 (SF-268 CNS) [µM] |
| --- | --- | --- | --- | --- | --- | --- | --- | --- | --- | --- | --- | --- | --- | --- | --- | --- | --- | --- | --- | --- |
| C[N+]1(C)C/C(=C\c2ccc(O)cc2)C(=O)/C(=C/c2ccc(O)cc2)C1 | > 100 | > 100 | > 100 | > 100 | > 100 | > 100 | > 100 | > 100 | > 100 | > 100 | – | – | – | – | – | – | – | – | – | – |
| NC(=S)N/N=C1\CC(c2ccccc2)Nc2ccccc21 (stereo not given) | > 100 | > 100 | > 100 | 48.5 | 50.9 | > 100 | 99.2 | – | > 100 | > 100 | > 100 | – | – | – | – | – | – | – | – | – |
| CCCCCCCCc1ccc(CCC(N)(CO)CO)cc1 | 5.8 | 3.48 | – | 3.31 | 2.98 | – | – | 3.08 | 3.2 | 13.9 | 4.33 | 2.36 | 1.94 | 1.76 | 1.62 | 1.82 | 1.64 | 1.8 | 3.5 | – |
| COc1cc(O)c2c(=O)c(OC)c(-c3ccc(OC)c(OC)c3)oc2c1.[Zn+2] | > 100 | 35.7 | > 100 | > 100 | > 100 | > 100 | 24.1 | > 100 | > 100 | > 100 | > 100 | 25.7 | 14.1 | 41.8 | 17.6 | 41.6 | > 100 | > 100 | – | 12.9 |
| CCOc1ccc(N=Nc2ccc(-c3ccc(N=Nc4c(O)ccc5cc(S(=O)(=O)O)cc(S(=O)(=O)O)c45)cc3)cc2)cc1 | > 100 | > 100 | > 100 | > 100 | > 100 | > 100 | > 100 | > 100 | > 100 | – | > 100 | – | – | – | – | – | – | – | – | – |
| CC(=O)Oc1cc(/C=C/c2ccc(O)cc2)cc(OC(C)=O)c1 | – | > 100 | > 100 | 93.1 | > 100 | 25.4 | > 100 | > 100 | > 100 | 68.5 | > 100 | – | – | – | – | – | – | – | – | – |
| CC(=O)c1c(C)cc2cccc(OC3OC(CO)C(O)C(O)C3O)c2c1O (stereo not given) (tested in a mixture with another compound) | > 100 | > 100 | > 100 | > 100 | > 100 | > 100 | > 100 | > 100 | > 100 | > 100 | > 100 | – | – | – | – | – | – | – | – | – |
| O=S(=O)([O-])[O-].[Fe+2].[OH2+]c1c(Cl)cc(Cl)cc1/C=N/Nc1ccccn1 | 2.25 | 0.578 | 1.94 | 3.6 | 15.1 | 6.12 | 1.92 | 5.97 | 3.32 | 2.82 | 3.26 | – | – | – | – | – | – | – | – | – |
| Cc1cccc(/C=C2/C(=O)Nc3ccccc32)n1 | 71.9 | 39.3 | 42.5 | > 100 | 26.3 | 46.5 | 34.7 | 27 | > 100 | 37.9 | 40.4 | – | – | – | – | – | – | – | – | – |
| Cc1ncc(COP(=O)(O)O)c(C)c1O | > 100 | > 100 | > 100 | > 100 | > 100 | – | > 100 | > 100 | > 100 | > 100 | > 100 | – | – | – | – | – | – | – | – | – |
| Nc1ccc(S(=O)(=O)NCCS(=O)(=O)O)cc1 | > 100 | > 100 | > 100 | > 100 | > 100 | – | > 100 | > 100 | > 100 | > 100 | > 100 | – | – | – | – | – | – | – | – | – |
| N=C(N)SCCN1CCCCC1 | > 100 | 43.9 | > 100 | > 100 | > 100 | 40.2 | 24.3 | > 100 | 88.8 | 73.4 | 62.1 | – | – | – | – | – | – | – | – | – |
| C[N+]1(c2ccccc2)C=C(c2ccccc2)SC1=S (stereo not given) | > 100 | > 100 | > 100 | > 100 | > 100 | > 100 | > 100 | > 100 | > 100 | > 100 | > 100 | – | – | – | – | – | – | – | – | – |
